Active and inactive are the calls of the source.
How the values were obtained:
[1] = target: Cytochrome P450 2D6 (Homo sapiens, UniProt P10635);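 note: CYP2D6 member of a cytochrome P450 panel assay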
[2] = target: Cytochrome P450 2C9 (Homo sapiens, UniProt P11712)
[3] = Luminescence Cell-Based Dose Response HTS to Identify Activators of Luciferase Translation or Activity in H4 […] Cells. [Related pubchem assays: 1829 (Project Summary), 1814 (Primary HTS)]; format: functional
[4] = Luminescence Cell-Based Dose Confirmation HTS to Identify Activators of 5'UTR Stem-Loop Driven Alpha-Synuclein mRNA Translation in H4 Neuroglioblastoma Cells. [Related pubchem assays: 1829 (Project Summary), 1814 (Primary HTS)]; format: functional
[5] = test system: H4; assay: Luminescence Cell-Based Dose Response HTS to Identify Activators of 5'UTR Stem-Loop Driven Prion Protein mRNA Translation in H4 Neuroglioblastoma Cells. [Related pubchem assays: 1829 (Project Summary), 1814 (Primary HTS)]; format: functional; details: Homo sapiens
[6] = target: T1, Cytochrome P450 1A2 (Homo sapiens, UniProt P05177);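 note: PubChem cytochrome P450 panel assay, CYP1A2 panel member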
T1 sequence (P05177 whole entry): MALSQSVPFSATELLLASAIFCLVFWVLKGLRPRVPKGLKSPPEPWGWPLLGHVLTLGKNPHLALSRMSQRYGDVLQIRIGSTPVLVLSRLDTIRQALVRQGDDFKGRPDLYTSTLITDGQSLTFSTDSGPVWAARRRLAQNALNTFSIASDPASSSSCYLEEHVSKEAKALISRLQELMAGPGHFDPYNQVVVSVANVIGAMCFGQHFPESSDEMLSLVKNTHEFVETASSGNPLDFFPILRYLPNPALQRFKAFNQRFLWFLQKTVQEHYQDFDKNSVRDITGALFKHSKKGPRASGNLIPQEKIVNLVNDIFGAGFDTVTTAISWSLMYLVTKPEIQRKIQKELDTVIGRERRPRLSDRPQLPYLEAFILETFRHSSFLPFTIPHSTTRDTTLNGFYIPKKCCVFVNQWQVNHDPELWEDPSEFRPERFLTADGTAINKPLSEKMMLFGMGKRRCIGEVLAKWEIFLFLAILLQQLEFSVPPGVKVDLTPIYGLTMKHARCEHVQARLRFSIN

[7] = target: Cytochrome P450 2C19 (Homo sapiens, UniProt P33261); assay: Cytochrome panel assay with activity outcomes. Panel member name: p450-cyp2c19 Compounds with AC50 equal or less than 10 uM are considered active; format: functional; details: read-out: AC50
Sequence of Cytochrome P450 2C19 (P33261 whole entry): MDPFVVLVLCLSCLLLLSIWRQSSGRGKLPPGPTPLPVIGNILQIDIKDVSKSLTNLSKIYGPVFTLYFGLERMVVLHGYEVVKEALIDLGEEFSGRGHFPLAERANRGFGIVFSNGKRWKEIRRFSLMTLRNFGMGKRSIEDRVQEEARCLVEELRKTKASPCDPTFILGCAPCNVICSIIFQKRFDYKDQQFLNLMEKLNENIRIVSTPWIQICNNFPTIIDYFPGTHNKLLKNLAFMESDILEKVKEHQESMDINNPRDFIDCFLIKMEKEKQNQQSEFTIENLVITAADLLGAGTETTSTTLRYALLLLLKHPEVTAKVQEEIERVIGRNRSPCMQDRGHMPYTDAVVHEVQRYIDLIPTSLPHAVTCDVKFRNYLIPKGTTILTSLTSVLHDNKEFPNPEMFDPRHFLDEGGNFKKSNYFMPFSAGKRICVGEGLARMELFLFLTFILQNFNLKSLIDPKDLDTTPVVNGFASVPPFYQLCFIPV

[8] = target: T2, Corticotropin-releasing factor receptor 2/Corticotropin-releasing factor-binding protein (Homo sapiens, UniProt P24387+Q13324); assay: activators of CRF receptor 2 with binding protein – uHTS hits, confirmation (AID 602473); format: functional; details: read-out: EC50_Mean
T2 sequence (Q13324 whole entry): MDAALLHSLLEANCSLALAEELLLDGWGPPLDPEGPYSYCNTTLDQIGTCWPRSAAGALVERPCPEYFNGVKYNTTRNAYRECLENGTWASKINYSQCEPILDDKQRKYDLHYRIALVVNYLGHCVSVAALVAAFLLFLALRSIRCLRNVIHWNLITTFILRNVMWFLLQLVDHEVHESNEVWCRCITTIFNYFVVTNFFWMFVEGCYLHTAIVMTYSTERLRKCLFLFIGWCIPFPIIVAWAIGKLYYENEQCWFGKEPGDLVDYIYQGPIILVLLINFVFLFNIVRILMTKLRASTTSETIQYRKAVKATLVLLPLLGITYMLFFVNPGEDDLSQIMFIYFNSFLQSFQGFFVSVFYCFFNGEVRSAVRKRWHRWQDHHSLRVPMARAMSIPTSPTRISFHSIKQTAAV
T2 sequence (P24387 whole entry): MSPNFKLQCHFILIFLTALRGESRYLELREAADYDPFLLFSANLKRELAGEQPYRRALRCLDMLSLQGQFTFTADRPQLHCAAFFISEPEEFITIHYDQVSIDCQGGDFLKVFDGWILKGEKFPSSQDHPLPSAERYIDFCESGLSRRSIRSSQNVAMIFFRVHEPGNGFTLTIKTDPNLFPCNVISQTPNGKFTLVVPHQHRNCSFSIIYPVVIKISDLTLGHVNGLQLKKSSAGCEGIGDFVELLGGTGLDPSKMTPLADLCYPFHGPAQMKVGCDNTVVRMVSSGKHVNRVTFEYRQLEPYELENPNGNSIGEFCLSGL

[9] = target: T2, Corticotropin-releasing factor receptor 2/Corticotropin-releasing factor-binding protein; assay: Dose Response confirmation of uHTS hits for small molecule antagonists of the CRF-binding protein and CRF-R2 receptor complex.; format: functional; details: read-out: IC50_Mean
[10] = target: Cytochrome P450 3A4 (Homo sapiens, UniProt P08684);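 note: CYP3A4 tested as one member of a cytochrome P450 panel screen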
Sequence of Cytochrome P450 3A4 (P08684 whole entry): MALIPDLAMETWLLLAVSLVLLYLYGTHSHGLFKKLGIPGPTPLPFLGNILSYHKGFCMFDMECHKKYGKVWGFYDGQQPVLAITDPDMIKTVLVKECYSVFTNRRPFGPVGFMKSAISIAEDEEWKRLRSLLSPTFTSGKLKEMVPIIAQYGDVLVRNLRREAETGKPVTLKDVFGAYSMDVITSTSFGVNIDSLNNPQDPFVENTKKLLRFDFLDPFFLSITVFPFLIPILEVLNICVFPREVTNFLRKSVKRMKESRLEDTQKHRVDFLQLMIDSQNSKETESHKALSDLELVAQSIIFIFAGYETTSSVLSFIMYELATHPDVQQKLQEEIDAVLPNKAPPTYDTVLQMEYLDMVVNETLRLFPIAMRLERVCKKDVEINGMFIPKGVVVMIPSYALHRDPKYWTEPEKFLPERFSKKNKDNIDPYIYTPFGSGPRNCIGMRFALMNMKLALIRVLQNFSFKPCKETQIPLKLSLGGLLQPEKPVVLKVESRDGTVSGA

Sequence of Cytochrome P450 2C9 (P11712 whole entry): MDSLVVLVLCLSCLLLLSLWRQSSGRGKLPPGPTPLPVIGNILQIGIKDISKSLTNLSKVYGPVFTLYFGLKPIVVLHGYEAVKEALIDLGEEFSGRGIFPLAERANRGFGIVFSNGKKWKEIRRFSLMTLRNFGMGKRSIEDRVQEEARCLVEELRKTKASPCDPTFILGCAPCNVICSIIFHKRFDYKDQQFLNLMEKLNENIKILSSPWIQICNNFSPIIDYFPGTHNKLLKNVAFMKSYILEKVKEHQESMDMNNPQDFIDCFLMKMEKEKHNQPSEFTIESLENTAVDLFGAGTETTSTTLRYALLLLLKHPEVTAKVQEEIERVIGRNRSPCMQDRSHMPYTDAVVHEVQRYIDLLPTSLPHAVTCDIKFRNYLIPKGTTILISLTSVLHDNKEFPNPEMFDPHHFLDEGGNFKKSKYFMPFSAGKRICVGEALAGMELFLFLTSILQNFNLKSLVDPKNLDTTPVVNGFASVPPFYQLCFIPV
Sequence of Cytochrome P450 2D6 (P10635 whole entry): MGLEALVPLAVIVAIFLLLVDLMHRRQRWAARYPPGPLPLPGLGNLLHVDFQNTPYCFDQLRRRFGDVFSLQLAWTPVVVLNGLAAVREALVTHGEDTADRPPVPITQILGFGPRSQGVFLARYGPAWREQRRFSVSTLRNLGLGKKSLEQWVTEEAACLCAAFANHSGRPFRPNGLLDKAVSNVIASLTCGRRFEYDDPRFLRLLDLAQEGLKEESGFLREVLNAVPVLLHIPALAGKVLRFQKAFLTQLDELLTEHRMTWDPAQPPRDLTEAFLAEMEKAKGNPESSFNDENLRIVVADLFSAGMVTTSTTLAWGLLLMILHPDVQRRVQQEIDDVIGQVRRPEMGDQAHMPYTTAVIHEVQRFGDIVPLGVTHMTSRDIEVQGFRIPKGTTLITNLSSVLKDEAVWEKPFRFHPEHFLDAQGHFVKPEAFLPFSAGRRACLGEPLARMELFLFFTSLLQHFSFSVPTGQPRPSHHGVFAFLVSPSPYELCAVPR

Which results are given for Cc1cc2c(nc1C)CCCCN2C[C@H](O)CN1CCCc2nc(-c3ccc(Br)cc3)ccc21?
AC50 [1]: 3.16 µM (inconclusive); AC50 [2]: 3.98 µM (inconclusive)

Which results are given for O=[N+]([O-])c1cccc(/N=C/C=C(/O)c2ccco2)c1?
EC50 [3]: 17 µM (active); EC50 [4]: 1.14 µM (active); EC50 [5]: > 120 µM (not active)

Which AC50 [1] does the source give for Cc1ccc(Oc2ccccc2/C=C2\SC(=O)N(C)C2=O)cc1 here?
The AC50 was 8.91 µM (inconclusive).

For O=C(Oc1ccc(S(=O)(=O)F)cc1F)c1ccccc1Cl, which AC50 [6] is on record?
The AC50 was 5.01 µM (inconclusive).

With NC(=S)c1ccc[n+]([C@@H]2O[C@@H](COP(=O)([O-])OP(=O)(O)OC[C@@H]3O[C@@H](n4cnc5c(N)ncnc54)[C@@H](OP(=O)(O)O)[C@H]3O)[C@@H](O)[C@H]2O)c1 as the compound, how does the AC50 [6] read?
The AC50 was 39.8 µM (inconclusive).

For COc1ccc(CCNC(=O)c2nnn(CC(=O)Nc3ccccc3C)c2N)cc1OC, which AC50 [7] is on record?
Its AC50 is 17.8 µM (inconclusive).

Which results are given for CC(C)CN1CC[C@@]2(CCCN(C(=O)Oc3ccccc3)C2)C1?
AC50 [2]: 31.6 µM (inconclusive); AC50 [6]: 15.8 µM (inconclusive)

Which AC50 [1] does the source give for Cc1noc(C)c1-c1nc(N2CCN(C)CC2)c2ccccc2n1 here?
Its AC50 is 39.8 µM (inconclusive).

Which AC50 [6] does the source give for COC(=O)[C@@]1(Cc2ccc(OC)cc2)[C@H]2c3cc(C(=O)N4CCCC4)n(CCN4CNCC4=O)c3C[C@H]2CN1C(=O)c1ccccc1 here?
Its AC50 is 31.6 µM (inconclusive).

Which EC50 [8] does the source give for Nc1c2c(nc3ccccc13)CCN(Cc1ccccc1)C2 here?
Its EC50 is > 53 µM (inactive).

What does the source list for Nc1c(C(=O)N2CCCCCC2)oc2ccccc12?
EC50 [8]: > 53 µM (inactive); IC50 [9]: > 47.1 µM (inactive)

For COC(=O)[C@@]1(Cc2ccc(OC)cc2)[C@H]2c3cc(C(=O)N4CCCC4)n(Cc4c(CO)ncc(C)c4O)c3C[C@H]2CN1C(=O)c1ccccc1, which AC50 [1] is on record?
Its AC50 is 20 µM (inconclusive).

And the AC50 [6]?
Its AC50 is 25.1 µM (inconclusive).

Which EC50 [8] does the source give for COC(=O)C1CSc2[nH]c(=O)sc2C1c1ccc(O)c(OC)c1 (stereo not drawn) here?
The EC50 was > 53 µM (inactive).

And the IC50 [9]?
The IC50 was > 47.1 µM (inactive).

What does the source list for Oc1c(CN2CCOCC2)cc(-c2ccccc2)cc1CN1CCOCC1?
AC50 [7]: 11.2 µM (inconclusive); AC50 [2]: 28.2 µM (inconclusive)

Which results are given for Cc1ccc(C)c(Cn2cnc3c(cnn3C(C)(C)C)c2=O)c1?
AC50 [6]: 10 µM (inconclusive); AC50 [10]: 0.794 µM (inconclusive)

For Cc1ccccc1C(=O)c1cccn1CC(=O)NCc1ccco1, which AC50 [6] is on record?
Its AC50 is 10 µM (inconclusive).

With CCOC(=O)c1c(NC(=O)CCCN2CCOCC2)sc2c1CC(C)(C)OC2 as the compound, how does the AC50 [7] read?
The AC50 was 39.8 µM (inconclusive).

And the AC50 [2]?
Its AC50 is 0.282 µM (inconclusive).

Which AC50 [7] does the source give for COc1cccc(Cn2c(=O)c(-c3ccc(Cl)cc3)nc3cnc(OC)nc32)c1 here?
Its AC50 is 1.26 µM (inconclusive).

What about the AC50 [2] of the same compound?
Its AC50 is 7.94 µM (inconclusive).

For CCOc1ccccc1NC(=O)C1CCC(=O)N1S(=O)(=O)c1ccc(C)cc1 (stereo not drawn), which EC50 [8] is on record?
Its EC50 is > 53 µM (inactive).

And the IC50 [9]?
Its IC50 is > 47.1 µM (inactive).

For CC1=CC(C)(C(Cl)(Cl)Cl)C(C)=CC1=NO (stereo not drawn), which EC50 [8] is on record?
The EC50 was > 53 µM (inactive).

And the IC50 [9]?
The IC50 was > 47.1 µM (inactive).

Which AC50 [6] does the source give for [O-]c1c[n+](CC[n+]2cc([O-])on2)no1 here?
Its AC50 is 2.51 µM (inconclusive).

For Cc1cc(NC(=O)Cn2nc3c(cc2=O)CCCC3)ccc1Br, which EC50 [8] is on record?
Its EC50 is > 53 µM (inactive).

And the IC50 [9]?
The IC50 was > 47.1 µM (inactive).

With CCCCCC/C(C)=C1/SC(=S)NC1=O as the compound, how does the AC50 [1] read?
The AC50 was 28.2 µM (inconclusive).

For CCC(=O)Nc1nnc(C(C)(C)C)s1, which AC50 [6] is on record?
Its AC50 is 17.8 µM (inconclusive).

From ChEMBL document CHEMBL1201862, “PubChem BioAssay data set” (2004)
